Measured values as given in article PMC7196836, “Molecular analysis of the ribosome recycling factor ABCE1 bound to the 30S post‐splitting complex” (The EMBO Journal, 2020).

Target: T1, ABCE1 (Saccharolobus solfataricus, UniProt Q980K5, L353Y)
T1 construct: gene SSO0287; recombinant in E. coli (pSA4 plasmid), C-terminal His6 tag; FeS cluster domain kept
Assay: Malachite Green ATPase assay (phosphate release)
Assay type: biochemical
Conditions: 2 mM ATP, 2.5 mM MgCl2, 150 mM NaCl, Hepes pH 7.5, 80 °C; no ribosomes

`Nc1ncnc2c1ncn2[C@@H]1O[C@H](COP(=O)(O)OP(=O)(O)OP(=O)(O)O)[C@@H](O)[C@H]1O` [ATP] was tested, and the “ATP turnover per ABCE1” value was “ATPase activity of ABCE1^L353Y (Appendix Fig S3) were comparable to wild type”.
